Values of other authors, collected in patent publication US11747352B2 (Concordia University, Inc., priority 2017, dated 2023).

Details: Table CYP1A2; cited from earlier work

Structure (SMILES)	HALF LIFE
CC(=O)Nc1ccc(O)cc1 [Paracetamol]	1 to 4 h
O=C(CCCN1CCC(O)(c2ccc(Cl)cc2)CC1)c1ccc(F)cc1 [Haloperidol]	14 to 37 h
Cc1nccn1CC1CCc2c(c3ccccc3n2C)C1=O (stereo not shown) [Ondansetron]	3 to 6 h
CN1CCN(C2=Nc3cc(Cl)ccc3Nc3ccccc32)CC1 [Clozapine]	4 to 66 h
COc1ccc2cccc(CCNC(C)=O)c2c1 [Agomelatine]	1 to 2 h
Cc1cc2c(s1)Nc1ccccc1N=C2N1CCN(C)CC1 [Olanzapine]	21 to 54 h
COc1ccc2[nH]cc(CCNC(C)=O)c2c1 [Melatonin]	0.583 to 0.833 h

Same assay, conditions: Table CYP2C9; cited from earlier work

Structure (SMILES)	HALF LIFE
CCCCNC(=O)NS(=O)(=O)c1ccc(C)cc1 [Tolbutamide]	4.5 to 6.5 h
O=C(O)Cc1ccccc1Nc1c(Cl)cccc1Cl [Diclofenac]	1.9 to 2.2 h
Cc1cccc(Nc2ccncc2S(=O)(=O)NC(=O)NC(C)C)c1 [Torasemide]	2.2 to 3.8 h
CN(CCOc1ccc(CC2SC(=O)NC2=O)cc1)c1ccccn1 (stereo not shown) [Rosiglitazone]	3 to 4 h
CC[C@@H](c1cccc(O)c1)[C@@H](C)CN(C)C [Tapentadol]	4 to 5 h
CC(C(=O)O)c1ccc(C(=O)c2cccs2)cc1 (stereo not shown) [Suprofen]	2 to 4 h

Same assay, conditions: Table CYP2D6; cited from earlier work

Structure (SMILES)	HALF LIFE
CN(C)C[C@H]1CCCC[C@]1(O)c1cccc(O)c1 [O-desmethyltramadol]	9 h
CCN(CC)CCNC(=O)c1cc(Cl)c(N)cc1OC [Metoclopramide]	5 to 6 h
Cc1cc(-c2ccccc2)nnc1NCCN1CCOCC1 [Minaprine]	2 to 2.5 h
CSc1ccc2c(c1)N(CCC1CCCCN1C)c1ccccc1S2 (stereo not shown) [Thioridazine]	21 to 24 h
O=C(CCCN1CCC(O)(c2ccc(Cl)cc2)CC1)c1ccc(F)cc1 [Haloperidol]	14 to 37 h
CN1[C@@H]2CC[C@H]1C[C@@H](OC(=O)c1c[nH]c3ccccc13)C2 [Tropisetron]	5.6 to 8.6 h
COc1cc(C(C)=O)ccc1OCCCN1CCC(c2noc3cc(F)ccc23)CC1 [Iloperidone]	18 to 33 h
COCCc1ccc(OCC(O)CNC(C)C)cc1 (stereo not shown) [Metoprolol]	3 to 7 h
OCCN1CCN(CCCN2c3ccccc3Sc3ccc(Cl)cc32)CC1 [Perphenazine]	9 to 12 h
Cc1nccn1CC1CCc2c(c3ccccc3n2C)C1=O (stereo not shown) [Ondansetron]	3 to 6.2 h
CC[C@@H](c1cccc(O)c1)[C@@H](C)CN(C)C [Tapentadol]	4 to 5 h
CCN1CCC[C@H]1CNC(=O)c1c(OC)ccc(Br)c1OC [Remoxipride]	3 to 6 h
C=CCc1ccccc1OCC(O)CNC(C)C (stereo not shown) [Alprenolol]	2 to 3 h
C1CCC(C(CC2CCCCN2)C2CCCCC2)CC1 (stereo not shown) [Perhexiline]	12 to 18 h

Same assay, conditions: Table CYP3A4; cited from earlier work

Structure (SMILES)	HALF-LIFE
CC(=O)O[C@H]1C(=O)[C@@]2(C)[C@H]([C@H](OC(=O)c3ccccc3)[C@]3(O)C[C@H](OC(=O)[C@H](O)[C@@H](NC(=O)c4ccccc4)c4ccccc4)C(C)=C1C3(C)C)[C@]1(OC(C)=O)CO[C@@H]1C[C@@H]2O [Paclitaxel]	13.1 to 57.7 h

Same assay, conditions: in vivo; cited from earlier work

Structure (SMILES)	HALF LIFE
COc1cccc(C2(O)CCCCC2CN(C)C)c1 (stereo not shown) [Tramadol]	5.5 to 6.7 h
Nc1c2c(nc3ccccc13)CCCC2 [Tacrine]	2 to 4 h
CCN[C@@H](C)Cc1cccc(C(F)(F)F)c1 [Dexfenfluramine]	17 to 20 h
COc1ccc2c3c1O[C@H]1[C@@H](O)C=C[C@H]4[C@@H](C2)N(C)CC[C@@]341 [Codeine]	2.5 to 3 h
COc1ccc2c(c1)[C@]13CCCC[C@@H]1[C@H](C2)N(C)CC3 [Dextromethorphan]	1.4 to 3.9 h
COc1ccc2c3c1O[C@H]1C(=O)CC[C@H]4[C@@H](C2)N(C)CC[C@]314 [Hydrocodone]	7 to 9 h
